The data set is described as follows: physchem. How it is done: It was here determined how much influence a mixture of oleic acid and lecithin would put on the solubility of d-alpha-tocopherol. It was determined with changing ratios of the oleic acid to the lecithine how to dissolve d-alpha-tocopherol in 20 mM solution of bile acid.

Converted amounts (≈) assume the structure as drawn. Read-outs that look alike come from different tables or passages of the source.

In the case of `Cc1c(C)c2c(c(C)c1O)CC[C@@](C)(CCC[C@H](C)CCC[C@H](C)CCCC(C)C)O2` [d-alpha-tocopherol], the solubility result is “high solubility”. Further, the concentration in solution (20 mm bile acid solution) (solubility) came to 2000 µg/mL (≈ 4.64 mM).

The solubility is the dissolved amount per volume that the medium holds. High values mean much dissolved substance, low ones little dissolved substance.

The values above are taken from EP0347843A1, “Vitamine E composition improved in absorption” (Eisai Co., Ltd., priority 1988, dated 1989).
